Source: patent US20250129021A1, “SMALL MOLECULE PROTEIN SYNTHESIS MODULATORS” (Interdict Bio, Inc., priority 2023, published 2025)

Assays:
Format in all cases: biochemical
CCND1 = test: In vitro transcription-translation (IVTT) assay, CCND1 reporter; details: IVTT assay, HeLa S3 lysate, sfGFP/mCherry ratio
Outline: (§1)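 Reporter: mCherry, P2A, then 3×FLAG-target peptide-sfGFP fusion, IRES-initiated; HeLa S3 lysate IVTT; cpd dilutions 30 μM−0.1 μM half-log in 100% DMSO (dilution-plate conc); DNA added last; 2 h, 30° C; PBS quench.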

NFKB1 = test: In vitro transcription-translation (IVTT) assay, NFKB1 reporter; details: HeLa S3 lysate, sfGFP/mCherry ratio
Experimental: (§2) In vitro transcription-translation assay setup: Each assay includes a master mix containing lysate and shared components, a 96-well plate containing compound titrations for testing, a 96-well DNA plate with reporter constructs to be tested, 96-well skirted PCR plates, and 96-well flat-bottom, black, fluorescent assay plates. Reaction materials setup: (A) Master mix—15 mL conical tube (3 mL of HeLa S3 Lysate described above; 0.6 mL of ThermoFisher Accessory Proteins (#88882); 1.2 ml of ThermoFisher Reaction Mix (#88882); 0.54 mL of nuclease-free Water); (B) 96-Well Master Mix+Compound Plate (Half-log dilutions (30 μM−0.1 μM) of 4 compounds of interest are prepared in 100% DMSO); 96-Well DNA Plate (Five DNA constructs are plated into single columns within the plate. Row 1 of the column contains nuclease free H2O, all other wells contain 110 ng/μL plasmid DNA). Reactions are started by mixing 155 μL of master mix and 3.5 μL of compound serial dilutions, then 9.1 μL of master mix+compound mixture is aliquoted across 5 96-well plates. Reactions begin with final addition of 2 μL of DNA for a 11.1 μL reaction volume in each well. The entire plate is sealed, and incubated for 2 hrs at 30° C. After 2 hrs, quench the assay using 45 μL of PBS, and transfer 50 μL to a flat-bottom black microplate Quantify the sfGFP and mCherry signals from each well on each plate, taking 3 reads of each plate, and perform data analysis below.
(§3) In vitro transcription-translation assay data analysis: Each plate is read three times in channels for both sfGFP and mCherry signals. The average signal across these 3 reads is then calculated for further analysis. Control wells containing no DNA reporter are subtracted from reporter wells in the same column to remove auto-fluorescence of the lysate. Then, the ratio of sfGFP/mCherry is calculated per well, and these ratios are averaged across the triplicate experiments on the same plate. Finally, the ratio of each titration concentration is normalized to the no drug control to create the normalized stalling metric. The error on this measurement is determined by propagating error through the averaging and normalization steps. Values are plotted and fit for IC50 determination for each test sequence and titration of compound.

MYC = test: In vitro transcription-translation (IVTT) assay, MYC reporter; details: IVTT assay, HeLa S3 lysate, MYC reporter, normalized sfGFP/mCherry ratio; half-log dilutions 30 μM-0.1 μM, 2 hrs at 30° C.
Outline: as §1

MCL-1 = test: In vitro transcription-translation (IVTT) assay, MCL-1 reporter; details: IVTT assay, HeLa S3 lysate, sfGFP/mCherry ratio; read-out: MCL1 IC50
Outline: as §1

CCNTB1 = test: In vitro transcription-translation (IVTT) assay, CCNTB1 reporter; details: HeLa S3 lysate, sfGFP/mCherry ratio
Experimental: as §2, §3

Row | SMILES | IC50 (CCND1) | IC50 (NFKB1) | IC50 (MYC) | IC50 (MCL-1) | IC50 (CCNTB1)
1 | O=C(NCC[C@@H]1C[C@H](C(F)(F)F)CN1)O[C@@H]1[C@@H](O)CN[C@@H]1Cc1ccc(-c2cnco2)cc1 [V192912, (2R,3S,4S)-4-hydroxy-2-{[4-(1,3-oxazol-5-yl)phenyl]methyl}pyrrolidin-3-yl N-{2-[(2S,4S)-4-(trifluoromethyl)pyrrolidin-2-yl]ethyl}carbamate] | < 10 µM | < 10 µM | < 10 µM | – | –
2 | O=C(NCc1cccc(F)c1)O[C@@H]1[C@@H](O)CN[C@@H]1Cc1ccc(-c2cnc(N3CC(F)(F)C3)s2)cc1 [V192410, (2R,3S,4S)-2-({4-[2-(3,3-difluoroazetidin-1-yl)-1,3-thiazol-5-yl]phenyl}methyl)-4-hydroxypyrrolidin-3-yl N-[(3-fluorophenyl)methyl]carbamate] | < 10 µM | < 10 µM | < 10 µM | – | –
3 | O=C(NCC[C@H]1CCNCC1(F)F)O[C@@H]1[C@@H](O)CN[C@@H]1Cc1ccc(-c2cnco2)cc1 [V192894, (2R,3S,4S)-4-hydroxy-2-{[4-(1,3-oxazol-5-yl)phenyl]methyl}pyrrolidin-3-yl N-{2-[(4R)-3,3-difluoropiperidin-4-yl]ethyl}carbamate] | < 10 µM | < 10 µM | < 10 µM | – | –
4 | O=C(NCCC12CNC(C1)C2)O[C@@H]1[C@@H](O)CN[C@@H]1Cc1ccc(-c2cnco2)cc1 [V192849, (2R,3S,4S)-4-hydroxy-2-{[4-(1,3-oxazol-5-yl)phenyl]methyl}pyrrolidin-3-yl N-(2-{2-azabicyclo[2.1.1]hexan-4-yl}ethyl)carbamate] | < 10 µM | < 10 µM | < 10 µM | – | –
5 | O=C(NCC[C@@H]1CCCN1)O[C@@H]1[C@@H](O)CN[C@@H]1Cc1ccc(-c2cnns2)cc1 [V192320, (2R,3S,4S)-4-hydroxy-2-{[4-(1,2,3-thiadiazol-5-yl)phenyl]methyl}pyrrolidin-3-yl N-{2-[(2S)-pyrrolidin-2-yl]ethyl}carbamate] | < 10 µM | < 10 µM | < 10 µM | – | –
6 | O=C(NCC[C@@H]1C[C@H](F)CN1)O[C@@H]1[C@@H](O)CN[C@@H]1Cc1ccc(-c2cnco2)cc1 [V192917, (2R,3S,4S)-4-hydroxy-2-{[4-(1,3-oxazol-5-yl)phenyl]methyl}pyrrolidin-3-yl N-{2-[(2R,4S)-4-fluoropyrrolidin-2-yl]ethyl}carbamate] | < 10 µM | < 10 µM | < 10 µM | – | –
7 | O=C(NCc1cccc(F)c1)O[C@@H]1[C@@H](O)CN[C@@H]1Cc1ccc(OCF)cc1 [V190507, (2R,3S,4S)-2-(4-(fluoromethoxy)benzyl)-4-hydroxypyrrolidin-3-yl (3-fluorobenzyl)carbamate] | < 10 µM | < 10 µM | < 10 µM | – | –
8 | O=C(NCC[C@H]1CCNC[C@H]1F)O[C@@H]1[C@@H](O)CN[C@@H]1Cc1ccc(-c2cnco2)cc1 [V192897, (2R,3S,4S)-4-hydroxy-2-{[4-(1,3-oxazol-5-yl)phenyl]methyl}pyrrolidin-3-yl N-{2-[(3S,4R)-3-fluoropiperidin-4-yl]ethyl}carbamate] | 10 to 20 µM | < 10 µM | < 10 µM | – | –
9 | O=C(NCC[C@@H]1CCCN1)O[C@@H]1[C@@H](O)CN[C@@H]1Cc1ccc(-c2cnco2)c(F)c1 [V192903, (2R,3S,4S)-2-{[3-fluoro-4-(1,3-oxazol-5-yl)phenyl]methyl}-4-hydroxypyrrolidin-3-yl N-{2-[(2S)-pyrrolidin-2-yl]ethyl}carbamate] | 10 to 20 µM | < 10 µM | < 10 µM | – | –
10 | O=C(NCc1cccc(F)c1)O[C@@H]1[C@@H](O)CN[C@@H]1Cc1ccc(C(F)F)cc1 [V192274, (2R,3S,4S)-2-{[4-(difluoromethyl)phenyl]methyl}-4-hydroxypyrrolidin-3-yl N-[(3-fluorophenyl)methyl]carbamate] | < 10 µM | < 10 µM | < 10 µM | – | –
11 | O=C(NCc1cccc(F)c1)O[C@@H]1[C@@H](O)CN[C@@H]1Cc1ccc(-c2cnco2)nc1 [V192862, (2R,3S,4S)-4-hydroxy-2-{[6-(1,3-oxazol-5-yl)pyridin-3-yl]methyl}pyrrolidin-3-yl N-[(3-fluorophenyl)methyl]carbamate] | < 10 µM | < 10 µM | < 10 µM | – | –
12 | O=C(NCC[C@H]1CCCN1)O[C@@H]1[C@@H](O)CN[C@@H]1Cc1ccc(-c2cnco2)cc1 [V192048, (2R,3S,4S)-4-hydroxy-2-{[4-(1,3-oxazol-5-yl)phenyl]methyl}pyrrolidin-3-yl N-{2-[(2R)-pyrrolidin-2-yl]ethyl}carbamate] | < 10 µM | – | < 10 µM | < 10 µM | < 10 µM
13 | COc1ccc(C[C@H]2NC[C@H](O)[C@H]2OC(=O)NCCN2CCCS2(=O)=O)cc1 [V191944, (2R,3S,4S)-4-hydroxy-2-[(4-methoxyphenyl)methyl]pyrrolidin-3-yl N-[2-(1,1-dioxo-1lambda6,2-thiazolidin-2-yl)ethyl]carbamate] | 10 to 20 µM | – | < 10 µM | < 10 µM | < 10 µM
14 | O=C(NCc1cccc(F)c1)O[C@@H]1[C@@H](O)CN[C@@H]1Cc1ccc(-c2cnoc2)cc1 [V190543, (2R,3S,4S)-4-hydroxy-2-{[4-(1,2-oxazol-4-yl)phenyl]methyl}pyrrolidin-3-yl N-[(3-fluorophenyl)methyl]carbamate] | > 30 µM | – | < 10 µM | > 30 µM | 20 to 30 µM
15 | O=C(NCCC1CCNCC1)O[C@@H]1[C@@H](O)CN[C@@H]1Cc1ccc(-c2ccc(F)c(F)c2)cc1 [V192051, (2R,3S,4S)-2-({3′,4′-difluoro-[1,1′-biphenyl]-4-yl}methyl)-4-hydroxypyrrolidin-3-yl N-[2-(piperidin-4-yl)ethyl]carbamate] | < 10 µM | – | < 10 µM | < 10 µM | < 10 µM
16 | O=C(NCc1cccc(F)c1)O[C@@H]1[C@@H](O)CN[C@@H]1Cc1ccc(-c2ccc(C(F)(F)F)cc2)cc1 [V192083, (2R,3S,4S)-4-hydroxy-2-{[4′-(trifluoromethyl)-[1,1′-biphenyl]-4-yl]methyl}pyrrolidin-3-yl N-[(3-fluorophenyl)methyl]carbamate] | > 30 µM | – | > 30 µM | > 30 µM | > 30 µM
17 | COc1ccc(C[C@H]2NC[C@H](O)[C@H]2OC(=O)N[C@@H](C)c2ccccc2)cc1 [V191971, (2R,3S,4S)-4-hydroxy-2-[(4-methoxyphenyl)methyl]pyrrolidin-3-yl N-[(1S)-1-phenylethyl]carbamate] | > 30 µM | – | 10 to 20 µM | 20 to 30 µM | 10 to 20 µM
18 | O=C(NCc1ccc2c(c1)CCNC2)O[C@@H]1[C@@H](O)CN[C@@H]1Cc1ccc(-c2ccc3c(c2)CC(F)(F)C3)cc1 [V192060, (2R,3S,4S)-2-{[4-(2,2-difluoro-1,3-dihydroinden-5-yl)phenyl]methyl}-4-hydroxypyrrolidin-3-yl N-(1,2,3,4-tetrahydroisoquinolin-6-ylmethyl)carbamate] | 20 to 30 µM | – | < 10 µM | < 10 µM | < 10 µM
19 | COc1ccc(C[C@H]2NC[C@H](O)[C@H]2OC(=O)NCc2ccnc(N3CC(F)(F)C3)c2)cc1 [V192066, (2R,3S,4S)-4-hydroxy-2-[(4-methoxyphenyl)methyl]pyrrolidin-3-yl N-{[2-(3,3-difluoroazetidin-1-yl)pyridin-4-yl]methyl}carbamate] | < 10 µM | – | < 10 µM | < 10 µM | 10 to 20 µM
20 | O=C(NCc1cccc(F)c1)O[C@@H]1[C@@H](O)CN[C@@H]1Cc1ccc(-c2ccc(Cl)s2)cc1 [V192156, (2R,3S,4S)-2-{[4-(5-chlorothiophen-2-yl)phenyl]methyl}-4-hydroxypyrrolidin-3-yl N-[(3-fluorophenyl)methyl]carbamate] | > 30 µM | – | > 30 µM | > 30 µM | > 30 µM
21 | COc1ccc(C[C@H]2NC[C@H](O)[C@H]2OC(=O)NCC[C@@H]2CC(F)(F)CN2)cc1 [V190526, (2R,3S,4S)-4-hydroxy-2-[(4-methoxyphenyl)methyl]pyrrolidin-3-yl N-{2-[(2R)-4,4-difluoropyrrolidin-2-yl]ethyl}carbamate] | > 30 µM | – | 10 to 20 µM | 10 to 20 µM | < 10 µM
